The source of these data is patent publication US4788214A, “3,4-dihydro-2H-1-benzopyran derivatives” (Hoffman-La Roche Inc., priority 1986, dated 1988).

Assay [1] has as its system leukotriene E4 bronchoconstriction. Kind of assay: Guinea Pig Bronchoconstriction, In Vivo (Aerosol), leukotriene E4 challenge. Further details: species or system guinea pig (Hartley strain). To be noted: five minute exposure, drug concentration of aerosol solution (w/v), leukotriene E4 i.v. Here is the method:
(b) Guinea Pig Bronchoconstriction, In Vivo (Aerosol):
Male guinea pigs (Hartley strain) weighing 300 to 500 g are anesthetized with urethane (2 g/kg) intraperitoneally and a polyethylene cannula is inserted into the jugular vein for drug administration. Tracheal pressure is recorded from a cannula inserted in the trachea and connected to a Statham pressure transducer. After surgical preparation of the animals, a period of time is allowed for pulmonary functions to stabilize. The test compound is administered according to the following protocol. Propanolol (0.1 mg/kg) is administered intravenously while the animals breathed spontaneously. Five minutes thereater, the animals are exposed for a five minute period to a 1% (w/v) aerosol solution of test compound (adjusted to an alkaline pH where necessary for drug solubilization) or to distilled water of thhe appropriate pH (for control purposes). A Monaghan (Model 750) ultrasonic nebulizer is used to administer all test compounds by inhalation. The nebulizer ultrasonic frequency is adjusted to produce particles in the 1-8μ diameter range (average 3μ). Aqueous solutions are prepared freshly and introduced into the chamber of the nebulizer. The output of the nebulizer is made available to the animal by directing a bias flow of aerosol through a Y tube connected to the trachel cannula. At the end of the exposure period, the animals are paralyzed with succinylcholine (1.2 mg/kg, i.v.) and mechanically respirated (Harvard rodent respirator) at 40 breaths/minute and 2.5 cc tidal volume. Animals are then challenged with a maximum constrictory dose of leukotriene E4 delivered intravenously 30 seconds after administration of the succinylcholine.
The change (cm H2 O) between pre and peak ventilatory pressure readings averaged for three control animals and five drug treated animals. The percent inhibition is calculated from the following formula: [formula] When various drug concentrations are tested, the percent inhibition at each concentration is plotted as log concentration (abscissa) versus percent inhibition (ordinate) and the IC50 is determined from linear regression analysis.

Assay [2] deals with SRS-A-induced constriction of the guinea pig ileum. Kind of assay: Guinea Pig Ileum, In Vitro (SRS-A antagonism). Format: cell-based. To be noted: Cavia porcellus; SRS-A-induced constriction, 37° C., SRS-A at its EC50; read-out: In vitro Guinea Pig ileum IC50. Here is the method:
(a) Guinea Pig Ileum, In Vitro:
The guinea pig ileum bioassay system has been described by Orange Austen, Adv. Immunol. […] A 1.5 cm segment is removed from animals weighing 300-400 g and suspended in an organ bath containing 10 ml of Tyrodes solution with 10^-6 M atropine sulfate and 10^-6 M pyrilamine maleate. […] The SRS-A utilized in this screen is obtained by challenging chopped lung fragments from actively sensitized guinea pigs with egg albumin, in vitro. A dose-response curve to SRS-A challenge is established for the ileum. […] The drug concentration which inhibits, by 50%, the SRS-A-induced constriction of the guinea pig ileum is determined.

The subject of assay [3] is leukotriene D4 induced bronchoconstriction. Kind of assay: Oral Testing of Leukotriene Antagonists, leukotriene D4 challenge. It is filed as in vivo, guinea pig (Hartley strain). To be noted: Cavia porcellus, 2 h, p.o., two hours prior to challenge. Here is the method: (c) Oral Testing of Leukotriene Antagonists
Male guinea pigs (Hartley strain, Charles River) weighing 400 to 600 g were anesthetized with urethane (2 g/kg) intraperitoneally and a polyethylene cannula was inserted into the jugular vein for intravenous drug administration. Tracheal pressure (cm water) was recorded from a Statham pressure transducer. After surgical preparation of the animals, a period of time was allowed for spontaneous breathing to stabilize. […] Two minutes later, spontaneous breathing was arrested with succinylcholine chloride (1.2 mg/kg, i.v.) and the animals ventilated with a Harvard (Model #680) small animal respirator set at 40 breaths per minute and 4.0 cc stroke volume. The animals were challenged with a maximum constrictory dose of either leukotriene C4 or leukotriene D4 or leukotriene E4 (25 μg/kg, i.v.) at 5 minutes. Control vehicle or test drug (adjusted to an alkaline pH where necessary for drug solubilization) was administered (10 mg/kg, p.o.) two hours prior to challenge with leukotriene. In order to determine the ID50 for a test drug, the dose is varied from 10 mg/kg, p.o. to 100, 50, 30, 20, 5, 3 and 1 mg/kg, p.o.
In order to determine oral duration of action, the time between exposure to test drug and challenge with leukotriene is varied.

Consider `CCCc1c(OCCCOc2c(C(C)=O)cc3c(c2CCC)OC(C(=O)O)CC3)ccc(C(C)=O)c1O` (racemic) [racemic-6-acetyl-7-[3-(4-acetyl-3-hydroxy-2-propylphenoxy)propoxy]-3,4-dihydro-8-propyl-2H-1-benzopyran-2-carboxylic acid], for which the “Guinea Pig Bronchoconstriction In vivo aerosol - IC50” value in assay [1] worked out at 0.38%. Moreover, in assay [2], the IC50 is 100 nM.

Turning to `CCCc1c(OCCCCCOc2cc3c(cc2C(C)=O)CCC(C(=O)O)O3)ccc(C(C)=O)c1O` (racemic) [racemic-6-acetyl-7-[5-(4-acetyl-3-hydroxy-2-propylphenoxy)pentyloxy]-3,4-dihydro-2H-1-benzopyran-2-carboxylic acid], the “Guinea Pig Bronchoconstriction In vivo aerosol - IC50” value in assay [1] turned out to be 0.052%. Also, the IC50 in assay [2] amounted to 60 nM.

Turning to `CCCc1c(OCCCCCOc2cc3c(cc2C(C)=O)CCC(CCCCC(=O)O)O3)ccc(C(C)=O)c1O` (racemic) [racemic-6-acetyl-7-[5-(4-acetyl-3-hydroxy-2-propylphenoxy)pentyloxy]-3,4-dihydro-2H-1-benzopyran-2-pentanoic acid], the inhibition at 10 mg/kg in assay [3] was found to be 46 ± 14%.

As to `CCCc1c(OCCCCCCCOc2cc3c(cc2C(C)=O)CCC(C(=O)O)O3)ccc(C(C)=O)c1O` (racemic) [racemic-6-acetyl-7-[7-(4-acetyl-3-hydroxy-2-propylphenoxy)heptyloxy]-3,4-dihydro-2H-1-benzopyran2-carboxylic acid], the “Guinea Pig Bronchoconstriction In vivo aerosol - IC50” value in assay [1] came to 1.0%. Besides, the IC50 in assay [2] came out at 1000 nM.

Turning to `CCCc1c(OCCCOc2ccc3c(c2CCC)OC(C)(CCC(=O)O)CC3)ccc(C(C)=O)c1O` (racemic) [racemic-7-[3-(4-acetyl-3-hydroxy-2-n-propylphenoxy)propoxy]-3,4-dihydro-2-methyl-8-n-propyl-2H-1-benzopyran-2-propanoic acid], the “Guinea Pig Bronchoconstriction In vivo aerosol - IC50” value in assay [1] was found to be 0.71%. Also, the IC50 in assay [2] was found to be 500 nM.

Take `CCCc1c(OCCCOc2ccc3c(c2CCC)OC(C(=O)O)CC3)ccc(C(C)=O)c1O` (racemic) [racemic-7-[3-(4-acetyl-3-hydroxy-2-propyl)phenoxy)propoxy]-3,4-dihydro-8-propyl-2H-1-benzopyran-2-carboxylic acid]: in assay [1], the “Guinea Pig Bronchoconstriction In vivo aerosol - IC50” value was determined as 0.20%. Also, in assay [2], the IC50 came out at 100 nM.

Consider `CCCc1c(OCCCOc2ccc3c(c2)OC(C)(CCC(=O)O)CC3)ccc(C(C)=O)c1O` (racemic) [racemic-7-[3-(4-acetyl-3-hydroxy-2-propylphenoxy)propoxy]-3,4-dihydro-2-methyl-2H-1-benzopyran-2-propanoic acid], for which the “Guinea Pig Bronchoconstriction In vivo aerosol - IC50” value in assay [1] is greater than 1.0%. Further, in assay [2], the IC50 turned out to be 100 nM.

As to `CCCc1c(OCCCOc2ccc3c(c2)OC(CC(=O)O)CC3)ccc(C(C)=O)c1O` (racemic) [racemic-7-[3-(4-acetyl-3-hydroxy-2-propylphenoxy)propoxy]-3,4-dihydro-2H-1-benzopyran-2-acetic acid], the “Guinea Pig Bronchoconstriction In vivo aerosol - IC50” value in assay [1] worked out at 0.67%. In assay [2], the IC50 is 100 nM.

Regarding `CCCc1c(OCCCOc2ccc3c(c2)OC(C(=O)O)CC3)ccc(C(C)=O)c1O` (racemic) [racemic-7-[3-(4-acetyl-3-hydroxy-2-propylphenoxy)propoxy]-3,4-dihydro-2H-1-benzopyran-2-carboxylic acid], in assay [1], the “Guinea Pig Bronchoconstriction In vivo aerosol - IC50” value was 0.14%. Moreover, in assay [2], the half-inhibitory concentration (IC50) was 60 nM.

Turning to `CCCc1c(OCCCOc2cc3c(cc2C(C)=O)OC(C)(C(=O)O)CC3)ccc(C(C)=O)c1O` (racemic) [racemic-7-acetyl-6-[3-(4-acetyl-3-hydroxy-2-propylphenoxy)propoxy]-3,4-dihydro-2-methyl-2H-1-benzopyran-2-carboxylic acid], the “Guinea Pig Bronchoconstriction In vivo aerosol - IC50” value in assay [1] is 1.0%. Further, in assay [2], the IC50 was determined as 500 nM.

For the compound `CCCc1c(OCCCOc2cc3c(cc2C(C)=O)OC(C(=O)O)CC3)ccc(C(C)=O)c1O` (racemic) [racemic-7-acetyl-6-[3-(4-acetyl-3-hydroxy-2-propylphenoxy)propoxy]-3,4-dihydro-2H-1-benzopyran-2-carboxylic acid], in assay [1], the “Guinea Pig Bronchoconstriction In vivo aerosol - IC50” value was 0.34%. Further, in assay [2], the IC50 is 200 nM.

For `CCCc1c(OCCCOc2ccc3c(c2C(C)=O)OC(C(=O)O)CC3)ccc(C(C)=O)c1O` (racemic) [racemic-8-acetyl-7-[3-(4-acetyl-3-hydroxy-2-propylphenoxy)propoxy]-3,4-dihydro-2H-1-benzopyran-2-carboxylic acid], the “Guinea Pig Bronchoconstriction In vivo aerosol - IC50” value in assay [1] stood at 0.59%. Moreover, the half-inhibitory concentration (IC50) in assay [2] was determined as 300 nM.
